Assay results: patent publication US6265577A, “Pyrazolopyridylpyridazinone derivatives and process for the preparation thereof” (Kyorin Pharmaceuticals Co., Ltd., priority 1996, dated 2001)
Converted amounts (≈) assume the structure as drawn.

Tests used:
Format in all cases: biochemical
[1] = biological target: T1, phosphodiesterase V from respiratory tract (Cavia porcellus, UniProt H0VD23); experiment: Measurement of phosphodiesterase-inhibiting activity, respiratory tract, V; details: guinea pig respiratory tract; 1 μM cAMP or cGMP substrate, 60 minutes at 30° C., EIA
T1 construct: fractions were extracted from respiratory tract and heart of guinea pig; from tissue; host or cells: guinea pig respiratory tract
Experimental: (§1) Measurement of phosphodiesterase-inhibiting activity
(§2) Phosphodiestorase-containing fractions were extracted from respiratory tract and heart of guinea pig according to the method of Nicholson et al (Br. J. Pharmacol., 97, 889-897 (1989)), and used as enzyme solutions. The measurement of phosphodiesterase-inhibiting activity was performed by quantitatively determining (Linden et al, J. Immunol. Methods., 151, 209-216 (1992)) the cyclic AMP (cAMP) or cyclic GMP (cGMP) that remains as a result of enzymic reaction (Thompson et al, Biochemistry, 10, 311-316 (1971)) through enzyme immunoassay (EIA).
(§3) This was performed according to the method of Thompson et al. The enzyme solution was placed in a test tube, and 1 μM of cAMP or cGMP was added as a substrate. After reacting for 60 minutes at 30° C., the test tube was dipped for 2 minutes into boiling bath to inactivate phosphodiesterase, thus stopping the reaction. The testing compound was added to the test tube simultaneously with substrate.
(§4) 2) Quantitative determination through EIA […]

[2] = biological target: T2, phosphodiesterase III from respiratory tract (Cavia porcellus, UniProt H0VIU9); experiment: Measurement of phosphodiesterase-inhibiting activity, respiratory tract, III; details: guinea pig respiratory tract; 1 μM cAMP or cGMP substrate, 60 minutes at 30° C., EIA
T2 construct: fractions were extracted from respiratory tract and heart of guinea pig; from tissue; host or cells: guinea pig respiratory tract
T2 sequence (H0VIU9 1-1132): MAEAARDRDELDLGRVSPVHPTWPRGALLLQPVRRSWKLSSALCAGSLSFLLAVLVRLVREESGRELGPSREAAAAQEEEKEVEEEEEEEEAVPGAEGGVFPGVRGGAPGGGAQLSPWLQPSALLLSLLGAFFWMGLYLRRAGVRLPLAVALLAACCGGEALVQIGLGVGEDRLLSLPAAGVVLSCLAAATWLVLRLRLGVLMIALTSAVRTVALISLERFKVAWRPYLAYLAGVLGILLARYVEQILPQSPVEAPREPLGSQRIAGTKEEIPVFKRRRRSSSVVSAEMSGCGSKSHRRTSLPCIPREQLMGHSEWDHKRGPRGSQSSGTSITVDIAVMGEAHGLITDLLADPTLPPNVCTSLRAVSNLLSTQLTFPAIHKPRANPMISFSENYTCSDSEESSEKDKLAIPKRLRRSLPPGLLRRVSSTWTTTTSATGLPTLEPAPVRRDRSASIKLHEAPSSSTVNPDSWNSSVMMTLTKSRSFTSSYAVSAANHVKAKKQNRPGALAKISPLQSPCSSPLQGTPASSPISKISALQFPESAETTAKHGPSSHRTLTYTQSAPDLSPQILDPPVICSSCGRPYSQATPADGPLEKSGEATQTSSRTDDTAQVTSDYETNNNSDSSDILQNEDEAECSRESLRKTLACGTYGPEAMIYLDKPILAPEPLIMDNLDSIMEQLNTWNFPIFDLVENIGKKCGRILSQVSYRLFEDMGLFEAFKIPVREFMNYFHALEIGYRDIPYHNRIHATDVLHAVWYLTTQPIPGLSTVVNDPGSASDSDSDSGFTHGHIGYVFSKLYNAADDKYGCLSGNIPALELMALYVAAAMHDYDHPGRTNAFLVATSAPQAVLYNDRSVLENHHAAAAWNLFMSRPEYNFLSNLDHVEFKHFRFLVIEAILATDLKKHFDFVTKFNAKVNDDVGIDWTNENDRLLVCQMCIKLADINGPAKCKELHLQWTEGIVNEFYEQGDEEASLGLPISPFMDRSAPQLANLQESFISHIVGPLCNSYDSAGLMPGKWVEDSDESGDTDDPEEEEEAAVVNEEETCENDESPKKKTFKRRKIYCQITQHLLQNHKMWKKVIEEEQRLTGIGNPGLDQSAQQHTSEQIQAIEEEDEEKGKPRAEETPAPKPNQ
Experimental: as §1, §2, §3, §4

[3] = biological target: T3, phosphodiesterase III from heart (Cavia porcellus, UniProt H0VIU9); experiment: Measurement of phosphodiesterase-inhibiting activity, heart, III; details: guinea pig heart; 1 μM cAMP or cGMP substrate, 60 minutes at 30° C., EIA
T3 construct: fractions were extracted from respiratory tract and heart of guinea pig; from tissue; host or cells: guinea pig heart
T3 sequence (H0VIU9 1-1132): T2 sequence (H0VIU9 1-1132)
Experimental: as §1, §2, §3, §4

[4] = biological target: phosphodiesterase I from heart; experiment: Measurement of phosphodiesterase-inhibiting activity, heart, I; details: guinea pig heart; 1 μM cAMP or cGMP substrate, 60 minutes at 30° C., EIA
Experimental: as §1, §2, §3, §4

[5] = biological target: T4, phosphodiesterase II from heart (Cavia porcellus, UniProt A0A286XUV5); experiment: Measurement of phosphodiesterase-inhibiting activity, heart, II; details: guinea pig heart; 1 μM cAMP or cGMP substrate, 60 minutes at 30° C., EIA
T4 construct: fractions were extracted from respiratory tract and heart of guinea pig; from tissue; host or cells: guinea pig heart
T4 sequence (A0A286XUV5 22-936): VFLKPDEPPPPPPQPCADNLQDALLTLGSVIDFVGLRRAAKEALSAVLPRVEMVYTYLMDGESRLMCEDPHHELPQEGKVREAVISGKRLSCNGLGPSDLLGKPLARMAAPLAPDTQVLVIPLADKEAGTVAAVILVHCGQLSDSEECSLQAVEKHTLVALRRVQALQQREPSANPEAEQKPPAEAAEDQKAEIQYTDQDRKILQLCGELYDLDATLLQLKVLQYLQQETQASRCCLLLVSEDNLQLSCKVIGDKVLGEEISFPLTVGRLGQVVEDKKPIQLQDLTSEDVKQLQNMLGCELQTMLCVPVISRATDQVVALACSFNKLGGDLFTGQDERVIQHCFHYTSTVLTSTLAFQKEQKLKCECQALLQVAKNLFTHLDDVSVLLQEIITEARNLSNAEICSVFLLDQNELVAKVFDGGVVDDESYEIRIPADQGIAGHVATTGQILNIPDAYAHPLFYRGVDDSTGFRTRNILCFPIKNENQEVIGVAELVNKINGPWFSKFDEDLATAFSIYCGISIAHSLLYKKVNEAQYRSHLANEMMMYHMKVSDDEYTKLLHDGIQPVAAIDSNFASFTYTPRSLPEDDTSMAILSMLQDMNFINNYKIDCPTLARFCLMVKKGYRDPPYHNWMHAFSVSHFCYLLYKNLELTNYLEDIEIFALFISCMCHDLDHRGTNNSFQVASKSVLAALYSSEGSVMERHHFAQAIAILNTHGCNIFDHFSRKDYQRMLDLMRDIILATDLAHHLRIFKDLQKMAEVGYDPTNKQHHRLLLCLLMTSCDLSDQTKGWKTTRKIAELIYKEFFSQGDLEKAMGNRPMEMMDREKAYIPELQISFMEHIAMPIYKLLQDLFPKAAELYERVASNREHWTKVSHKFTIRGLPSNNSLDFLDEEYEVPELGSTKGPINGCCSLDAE
Experimental: as §1, §2, §3, §4

[6] = biological target: T5, phosphodiesterase II from respiratory tract (Cavia porcellus, UniProt A0A286XUV5); experiment: Measurement of phosphodiesterase-inhibiting activity, respiratory tract, II; details: guinea pig respiratory tract; 1 μM cAMP or cGMP substrate, 60 minutes at 30° C., EIA
T5 construct: fractions were extracted from respiratory tract and heart of guinea pig; from tissue; host or cells: guinea pig respiratory tract
T5 sequence (A0A286XUV5 22-936): T4 sequence (A0A286XUV5 22-936)
Experimental: as §1, §2, §3, §4

[7] = biological target: phosphodiesterase IV from respiratory tract; experiment: Measurement of phosphodiesterase-inhibiting activity, respiratory tract, IV; details: guinea pig respiratory tract; 1 μM cAMP or cGMP substrate, 60 minutes at 30° C., EIA
Experimental: as §1, §2, §3, §4

CC1CC(=O)NN=C1c1c(C(C)C)nn2ccccc12 (stereo not shown) [Example 36]
IC50 [1]: 0.37 µM | IC50 [2]: 14.8 µM | IC50 [3]: 18.5 µM | IC50 Heart I [4]: > 30 µg/mL | IC50 [5]: > 111 µM | IC50 [6]: > 111 µM | IC50 Respiratory tract IV [7]: 5 µg/mL (≈ 18.5 µM)
